Assay results from PMC4300089, “Structure-Guided Design of Selective Epac1 and Epac2 Agonists” (PLoS Biology, 2015).
Where two headings read alike, the source gives them in different places.

Experiments:
Epac2^Δ280 = molecular target: T1, Epac2^Δ280 (Mus musculus, UniProt Q9EQZ6); assay: Epac activation assay (Rap1B•mGDP fluorescence nucleotide exchange), Epac2^Δ280; type: biochemical; conditions: Epac2^Δ280; for Rel. kmax: maximal activity relative to cAMP
T1 construct: made in house
T1 sequence (Q9EQZ6 281-993 isoform Q9EQZ6-3): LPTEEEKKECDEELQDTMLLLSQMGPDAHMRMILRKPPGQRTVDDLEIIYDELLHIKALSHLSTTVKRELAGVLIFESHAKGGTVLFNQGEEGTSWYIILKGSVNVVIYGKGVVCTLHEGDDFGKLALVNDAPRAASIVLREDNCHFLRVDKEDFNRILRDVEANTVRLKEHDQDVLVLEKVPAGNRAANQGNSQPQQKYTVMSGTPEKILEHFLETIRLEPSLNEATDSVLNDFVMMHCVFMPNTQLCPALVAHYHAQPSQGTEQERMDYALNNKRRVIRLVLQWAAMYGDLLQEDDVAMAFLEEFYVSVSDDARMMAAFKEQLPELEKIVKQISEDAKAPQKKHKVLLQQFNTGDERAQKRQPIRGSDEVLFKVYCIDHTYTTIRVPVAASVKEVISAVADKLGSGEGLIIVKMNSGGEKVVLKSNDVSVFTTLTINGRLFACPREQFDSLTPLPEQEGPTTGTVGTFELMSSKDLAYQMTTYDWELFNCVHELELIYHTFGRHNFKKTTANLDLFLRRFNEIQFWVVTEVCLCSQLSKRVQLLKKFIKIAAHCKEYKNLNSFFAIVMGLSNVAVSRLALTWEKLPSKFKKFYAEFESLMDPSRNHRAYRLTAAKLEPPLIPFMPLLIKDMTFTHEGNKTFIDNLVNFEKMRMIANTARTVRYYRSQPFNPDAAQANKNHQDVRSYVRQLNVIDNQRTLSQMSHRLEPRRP
Protocol: (§1) Murine Epac2 was used as all previous structural studies were performed with it.
(§2) The activity of Epac was determined by a fluorescence assay. […] The fluorescence intensity of Rap1B•mGDP is approximately twice that of free mGDP, and thus, nucleotide exchange can be observed as a decay in fluorescence upon the addition of excess unlabeled GDP.

Epac1 [1] = molecular target: T2, Epac1 (Homo sapiens, UniProt O95398); assay: Epac activation assay, Epac1; type: biochemical; conditions: Epac1; for Rel. kmax: maximal activity relative to cAMP
T2 construct: made in house
T2 sequence (O95398 150-881 isoform O95398-3): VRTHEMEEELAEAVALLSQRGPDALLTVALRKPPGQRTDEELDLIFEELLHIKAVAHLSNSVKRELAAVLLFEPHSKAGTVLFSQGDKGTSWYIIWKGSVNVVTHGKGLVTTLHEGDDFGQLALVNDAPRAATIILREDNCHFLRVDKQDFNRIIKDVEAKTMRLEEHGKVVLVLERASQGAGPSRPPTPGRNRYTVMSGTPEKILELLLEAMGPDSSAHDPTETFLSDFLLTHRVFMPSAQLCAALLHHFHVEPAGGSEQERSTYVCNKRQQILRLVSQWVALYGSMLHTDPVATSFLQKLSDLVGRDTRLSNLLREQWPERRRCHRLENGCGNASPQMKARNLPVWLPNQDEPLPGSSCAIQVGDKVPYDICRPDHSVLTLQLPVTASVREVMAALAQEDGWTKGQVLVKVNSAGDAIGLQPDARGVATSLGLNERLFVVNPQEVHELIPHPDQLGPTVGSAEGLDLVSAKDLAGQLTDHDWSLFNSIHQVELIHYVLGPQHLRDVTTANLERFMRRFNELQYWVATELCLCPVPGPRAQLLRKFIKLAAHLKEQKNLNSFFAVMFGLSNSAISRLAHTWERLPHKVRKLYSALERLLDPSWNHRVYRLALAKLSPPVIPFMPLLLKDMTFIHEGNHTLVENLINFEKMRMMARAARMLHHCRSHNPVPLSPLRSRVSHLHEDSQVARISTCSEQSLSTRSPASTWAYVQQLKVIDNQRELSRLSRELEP

Epac2^fl = molecular target: T3, Epac2^fl (Mus musculus, UniProt Q9EQZ6); assay: Epac activation assay, full length Epac2; type: biochemical; set-up: made in house; conditions: Epac2^fl; for Rel. kmax: maximal activity relative to cAMP
T3 sequence (Q9EQZ6 1-993 isoform Q9EQZ6-3): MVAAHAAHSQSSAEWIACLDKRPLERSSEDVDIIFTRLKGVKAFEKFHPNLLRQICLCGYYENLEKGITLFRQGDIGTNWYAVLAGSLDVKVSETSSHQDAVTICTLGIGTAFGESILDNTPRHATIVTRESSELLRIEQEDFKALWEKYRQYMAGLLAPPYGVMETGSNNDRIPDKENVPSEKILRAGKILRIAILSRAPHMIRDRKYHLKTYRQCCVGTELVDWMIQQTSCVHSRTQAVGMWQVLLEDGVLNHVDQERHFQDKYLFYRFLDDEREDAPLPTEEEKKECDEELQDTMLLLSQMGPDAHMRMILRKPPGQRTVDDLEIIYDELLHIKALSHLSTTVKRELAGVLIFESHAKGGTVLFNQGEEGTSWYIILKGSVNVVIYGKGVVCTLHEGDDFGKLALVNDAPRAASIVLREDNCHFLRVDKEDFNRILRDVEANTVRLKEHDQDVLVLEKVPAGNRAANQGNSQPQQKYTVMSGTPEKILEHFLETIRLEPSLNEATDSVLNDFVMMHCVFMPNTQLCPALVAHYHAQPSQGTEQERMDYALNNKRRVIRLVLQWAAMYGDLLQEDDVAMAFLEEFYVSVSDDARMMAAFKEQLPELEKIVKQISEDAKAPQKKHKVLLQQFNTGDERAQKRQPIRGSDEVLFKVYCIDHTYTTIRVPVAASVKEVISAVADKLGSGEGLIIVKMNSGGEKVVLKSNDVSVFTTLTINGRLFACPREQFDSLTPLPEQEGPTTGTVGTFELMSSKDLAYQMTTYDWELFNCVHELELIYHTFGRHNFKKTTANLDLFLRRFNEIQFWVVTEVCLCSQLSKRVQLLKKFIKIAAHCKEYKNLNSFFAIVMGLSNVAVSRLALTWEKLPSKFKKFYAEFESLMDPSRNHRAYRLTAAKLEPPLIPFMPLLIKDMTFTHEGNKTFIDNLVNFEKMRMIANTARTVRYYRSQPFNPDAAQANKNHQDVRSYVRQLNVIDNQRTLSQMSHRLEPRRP
Protocol: as §1, §2

Epac1 [2] = molecular target: T2, Epac1; set-up: method as in PMID 12888551; conditions: footnote c, see also ref 13; cited from earlier work

| Compound | AC50 (Epac2^Δ280) | Rel. kmax (Epac2^Δ280) | AC50 (Epac1 [1]) | Rel. kmax (Epac1 [1]) | AC50 (Epac2^fl) | Rel. kmax (Epac2^fl) | AC50 (Epac1 [2]) | Rel. kmax (Epac1 [2]) |
| --- | --- | --- | --- | --- | --- | --- | --- | --- |
| CNc1nc2c(N)ncnc2n1[C@@H]1O[C@@H]2CO[P@](O)(=S)O[C@H]2[C@H]1O [S-030, Sp-8-MeA-cAMPS] | 0.7 µM | 8.4 | 30 µM | 1.4 | 10 µM | 7.7 | – | – |
| Nc1ncnc2c1nc(Br)n2[C@@H]1O[C@@H]2COP(=O)(O)O[C@H]2[C@H]1O [L-002, 8-Br-cAMP] | 0.4 µM | 0.9 | – | – | – | – | 6.2 µM | 0.5^c |
| Nc1ncnc2c1nc(Br)n2[C@@H]1O[C@@H]2COP(O)(=S)O[C@@H]2C1O (stereo partly drawn) [S-010, Sp-8-Br-cAMPS] | 0.4 µM | 3.5 | 16 µM | 1.0 | 8 µM | 3.6 | – | – |
| CO[C@H]1C2OP(=O)(O)OC[C@H]2O[C@H]1n1c(Br)nc2c(N)ncnc21 (stereo partly drawn) [D-005, 8-Br-2′-O-Me-cAMP] | 8 µM | 1.6 | 35 µM | 0.9 | – | – | – | – |
| Nc1ncnc2c1nc(N1CCCCC1)n2[C@@H]1O[C@@H]2COP(=O)(O)O[C@H]2[C@H]1O [L-018, 8-PIP-cAMP] | 13 µM | 3.8 | – | – | – | – | 130 µM | 0.9^c |
| Nc1ncnc2c1nc(Br)n2[C@@H]1O[C@@H]2CO[P@](O)(=S)O[C@H]2[C@H]1F [S-012, Sp-8-Br-2′-F-cAMPS] | 9.8 µM | 1.2 | 75 µM | 0.08 | – | – | – | – |
| Nc1ncnc2c1nc(SCCc1ccccc1)n2[C@@H]1O[C@@H]2CO[P@](O)(=S)O[C@H]2[C@H]1O [S-190, Sp-8-PheET-cAMPS] | 0.14 µM | 0.4 | 6 µM | 0.2 | – | – | – | – |
| CNc1nc2c(N)ncnc2n1[C@H]1C[C@@H]2O[P@@](O)(=S)OC[C@H]2O1 [S-031, Sp-8-MeA-2′-dcAMPS] | 40 µM | 1.7 | 320 µM | 0.1 | – | – | – | – |
| Nc1ncnc2c1nc(SCc1ccccc1)n2[C@@H]1O[C@@H]2CO[P@](O)(=S)O[C@H]2[C@H]1F [S-222, Sp-8-BnT-2′-F-cAMPS] | 4.3 µM | 4.2 | 60 µM | 0.09 | 15 µM | 1.8 | – | – |
| CNc1nc2c(N)ncnc2n1[C@@H]1O[C@@H]2CO[P@](O)(=S)O[C@H]2[C@H]1Cl [S-033, Sp-8-MeA-2′-Cl-cAMPS] | 14 µM | 0.7 | 120 µM | 0.1 | – | – | – | – |
| Nc1ncnc2c1nc(SCc1ccccc1)n2[C@H]1C[C@@H]2O[P@@](O)(=S)OC[C@H]2O1 [S-221, Sp-8-BnT-2′-dcAMPS] | 10 µM | 1.5 | 280 µM | 0.06 | – | – | – | – |
| CO[C@H]1C2OP(O)(=S)OC[C@H]2O[C@H]1n1c(Sc2ccc(Cl)cc2)nc2c(N)ncnc21 (stereo partly drawn) [S-211, Sp-8-pCPT-2′-O-Me-cAMPS] | 1.4 µM | 0.4 | 7.3 µM | 1.9 | – | – | – | – |
